The text below walks through data of patent US20250092065A1, “2-(INDAZOL-5-YL)-6-(PIPERIDIN-4-YL)-1,7-NAPHTHYRIDINE DERIVATIVES AND RELATED COMPOUNDS AS MODULATORS FOR SPLICING NUCLEIC ACIDS AND FOR THE TREATMENT OF PROLIFERATIVE DISEASES” (REMIX THERAPEUTICS INC., priority 2022, published 2025).

The structures appear in SMILES notation. Bounds are passed on as bounds.

Data set [1] concerns HTT. In words: HiBiT protein abundance assay, HTT (K562 HiBiT knock-in). The data set is classed as cell-based, human. The note with it: HiBiT knock-in K562 cells, 24 hours, top dose 10 μM. A digest of the protocol: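 Luminescence readout: Nano-Glo HiBiT lytic detection after 24 h compound exposure of K562 HiBiT knock-in cells, 10000 cells/well. Dosing 10-pt, 3-fold, top 10 μM final. % response vs untreated parental K562 and DMSO controls; 4PL fit, IC50 = concentration giving 50% protein abundance.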

For data set [2], the system named is Target C. Nature of the data set: RT-qPCR canonical junction panel assay, Target C mRNA. The data set is classed as cell-based. The note with it: Table 4, read-out: Target C IC50 (decrease in CJ mRNA levels). The procedure, abridged:
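A673 or K562 cells treated with compound; CJ mRNA quantified by junction-spanning RT-qPCR probe after cDNA synthesis, normalised to GAPDH, GUSB or PPIA and DMSO (2^−ΔΔCt), scaled to set ΔCt assay window; IC50 from 4-parameter fit of CJ decrease.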
On the technique in general: Quantitative PCR measures a nucleic acid by following its amplification.

In data set [3] the test system is K562 cells. In words: Cell Titer Glo 2.0 cell viability (toxicity) assay, K562. The note with it: 500 cells/well, 72 hours. Background: ATP-based viability assays read luminescence as a measure of living cells.

Broadly, the IC50 is the concentration at which inhibition is half-maximal. In the case of `Cc1nc2cc(O)c(-c3ccc4nc(N5CCN[C@@H](C6CC6)C5)ccc4n3)cc2o1` [Compound 418], the IC50 in data set [1] and in data set [2] was 0.1 to 1 µM in each case. Moreover, the “Effect of Exemplary Compounds on Cell Viability, K562” value (from here on “Effect of Exemplary Compounds”) in data set [3] is “B (B represents 100-1000 nM)”.
Consider `Cc1nc2cc(O)c(-c3ccc4nc(N5C[C@@H](C)N[C@@H](C6CC6)C5)ccc4n3)cc2o1` [Compound 419], for which the half-inhibitory concentration (IC50) in data set [1] and in data set [2] was 0.1 to 1 µM each time. Further, in data set [3], the “Effect of Exemplary Compounds” value is “B (B represents 100-1000 nM)”.
Turning to `Cc1nc2cc(O)c(-c3ccc4nc(N5C[C@@H](C)N[C@@H](C)C5)ccc4n3)cc2o1` [Compound 420], the IC50 was in the range of 0.1 to 1 µM in data set [1] and 1 to 10 µM in data set [2]. The “Effect of Exemplary Compounds” value in data set [3] is “B (B represents 100-1000 nM)”.
Taken in the same sequence, the figures for `Cc1nc2cc(O)c(-c3ccc4nc(N5CCN[C@H](C6CC6)C5)ccc4n3)cc2o1` [Compound 421] were 0.1 to 1 µM, 0.1 to 1 µM and “B (B represents 100-1000 nM)”.
For `Cc1nc2cc(O)c(-c3ccc4nc(N5CCN[C@@H](C(C)C)C5)ccc4n3)cc2o1` [Compound 422] the same measures were 0.1 to 1 µM, 1 to 10 µM and “B (B represents 100-1000 nM)”.
For `Cc1nc2cc(O)c(-c3ccc4nc(N5CCC(N)CC5)ccc4n3)cc2o1` [Compound 424] the same measures were 1 to 10 µM, 1 to 10 µM and “B (B represents 100-1000 nM)”.
In the case of `CNC1CCN(c2ccc3nc(-c4cc5oc(C)nc5cc4O)ccc3n2)CC1` [Compound 425], the IC50 in data set [1] was 1 to 10 µM; in data set [2], more than 10 µM. Moreover, the “Effect of Exemplary Compounds” value in data set [3] is given as “B (B represents 100-1000 nM)”.
Consider `Cc1nc2c(C)c(O)c(-c3ccc4nc(N5CC[C@H](NC6CC6)C5)ncc4n3)cc2o1` [Compound 433, 6-{2-[(3S)-3-(cyclopropylamino)pyrrolidin-1-yl]pyrido[3,2-d]pyrimidin-6-yl}-2,4-dimethyl-1,3-benzoxazol-5-ol], for which the IC50 is less than 0.1 µM in data set [1] and 0.1 to 1 µM in data set [2]. Also, the “Effect of Exemplary Compounds” value in data set [3] is “B (B represents 100-1000 nM)”.
On to `Cc1nc2cc(O)c(-c3ccc4nc(N5CC[C@H](NC6CC6)C5)ncc4n3)cc2o1` [Compound 435, 6-{2-[(3S)-3-(cyclopropylamino)pyrrolidin-1-yl]pyrido[3,2-d]pyrimidin-6-yl}-2-methyl-1,3-benzoxazol-5-ol], for which the IC50 in data set [1] and in data set [2] was 0.1 to 1 µM throughout. For the same molecule, the “Effect of Exemplary Compounds” value in data set [3] was “B (B represents 100-1000 nM)”.
`Cc1nc2c(C)c(O)c(-c3ccc4nc(N5CC[C@@H](NC(C)(C)C)C5)ncc4n3)cc2o1` [Compound 436]: the IC50 in data set [1] and in data set [2] was less than 0.1 µM throughout. Also, the “Effect of Exemplary Compounds” value in data set [3] is reported as “A (A represents <100 nM)”.
In the case of `Cc1nc2c(C)c(O)c(-c3ccc4nc(N5CC[C@H](NC(C)(C)C)C5)ncc4n3)cc2o1` [Compound 437], the concentration for half-maximal inhibition (IC50) in data set [1] was less than 0.1 µM; in data set [2], 0.1 to 1 µM. Besides, the “Effect of Exemplary Compounds” value in data set [3] is “B (B represents 100-1000 nM)”.
For `Cc1c(O)c(-c2ccc3nc(N4CC[C@@H](NC5CC5)C4)ncc3n2)cc2cn(C)nc12` [Compound 438, 5-{2-[(3R)-3-(cyclopropylamino)pyrrolidin-1-yl]pyrido[3,2-d]pyrimidin-6-yl}-2,7-dimethylindazol-6-ol], the IC50 is less than 0.1 µM in data set [1] and 0.1 to 1 µM in data set [2]. Also, in data set [3], the “Effect of Exemplary Compounds” value was “B (B represents 100-1000 nM)”.
For `Cc1c(O)c(-c2ccc3nc(N4CC[C@H](NC5CC5)C4)ncc3n2)cc2cn(C)nc12` [Compound 439, 5-{2-[(3S)-3-(cyclopropylamino)pyrrolidin-1-yl]pyrido[3,2-d]pyrimidin-6-yl}-2,7-dimethylindazol-6-ol] the same measures were less than 0.1 µM, 0.1 to 1 µM and “B (B represents 100-1000 nM)”.
